Test results from ChEMBL document CHEMBL1145982, “Novel dihydrofolate reductase inhibitors. Structure-based versus diversity-based library design and high-throughput synthesis and screening” (J Med Chem, 2003).
Values after ≈ are worked out from the molar mass of the structure shown.

Experiments:
Dihydrofolate reductase [1] = molecular target: T1, Dihydrofolate reductase (Staphylococcus aureus, UniProt P0A017); assay: Inhibitory activity against TMP-Resistance Dihydrofolate reductase from Staphylococcus aureus 157/4696
T1 sequence (P0A017 2-159 limits assumed): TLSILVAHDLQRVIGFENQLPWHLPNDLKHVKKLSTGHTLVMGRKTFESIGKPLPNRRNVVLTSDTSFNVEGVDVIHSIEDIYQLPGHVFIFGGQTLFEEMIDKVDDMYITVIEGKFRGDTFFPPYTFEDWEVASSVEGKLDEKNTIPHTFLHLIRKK

Homo sapiens = species: Homo sapiens; assay: Selectivity ratio against human and […] ATCC 49619 dihydrofolate reductase
Dihydrofolate reductase [2] = molecular target: T1, Dihydrofolate reductase; assay: Inhibitory activity of TMP-Resistance DHFR against Staphylococcus aureus 157/4696
Dihydrofolate reductase [3] = molecular target: T1, Dihydrofolate reductase; assay: Tested for inhibition of TMP-Resistant Dihydrofolate reductase from Staphylococcus aureus 157/4696.
[4] = molecular target: T2, Dihydrofolate reductase (Homo sapiens) (UniProt P00374); details: Staphylococcus; ATCC 49619
T2 sequence (whole entry): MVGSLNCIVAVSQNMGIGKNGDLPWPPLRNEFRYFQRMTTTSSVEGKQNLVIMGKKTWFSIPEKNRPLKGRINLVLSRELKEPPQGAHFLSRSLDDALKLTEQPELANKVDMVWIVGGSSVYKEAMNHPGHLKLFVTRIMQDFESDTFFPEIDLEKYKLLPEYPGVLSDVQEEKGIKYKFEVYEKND
Description: Antibacterial activity of TMP-susceptible DHFR against Staphylococcus pneumoniae ATCC 49619

[5] = molecular target: T2, Dihydrofolate reductase (Homo sapiens); details: Staphylococcus
Description: Antibacterial activity against TMP-Resistant Dihydrofolate reductase from Staphylococcus aureus 157/4696

[6] = molecular target: Dihydrofolate reductase (Staphylococcus aureus) (UniProt P0A017)
Sequence of Dihydrofolate reductase (Staphylococcus aureus) (P0A017 2-159 limits assumed): as the sequence (P0A017 2-159 limits assumed) above
Description: Tested for inhibition of TMP-Resistant Dihydrofolate reductase from Staphylococcus pneumoniae 1/1.

[7] = molecular target: T2, Dihydrofolate reductase (Homo sapiens); details: Staphylococcus; ATCC 49619; remark: listed apart in the source
Description: Antibacterial activity against TMP-susceptible DHFR from Staphylococcus pneumoniae ATCC 49619

[8] = molecular target: T2, Dihydrofolate reductase (Homo sapiens); details: Staphylococcus; remark: listed apart in the source
Description: Inhibitory activity of TMP-Resistance Dihydrofolate reductase against Staphylococcus aureus 157/4696

Row | SMILES | IC50 (Dihydrofolate reductase [1]) [µM] | Ratio (Homo sapiens) | also measured
1 | Nc1ncc(CN2CCc3ccccc3C2)c(N)n1 | 40 | > 90 | 
2 | COc1cc2c(cc1OC)C(C)N(Cc1cnc(N)nc1N)CC2 (centres undefined) |  | 15 | 
3 | COc1cc2c(c3c1OCO3)[C@@H](C)N(Cc1cnc(N)nc1N)CC2 | 1.3 |  | 
4 | CC1c2cc(Cc3ccccc3)c(-c3ccccc3)n2CCN1Cc1cnc(N)nc1N (centres undefined) |  | 40 | 
5 | CC1c2ccc3c4ccccc4n(C)c3c2CCN1Cc1cnc(N)nc1N (centres undefined) |  | 21 | 
6 | COc1cc2c(c3c1OCO3)[C@H](C)N(Cc1cnc(N)nc1N)CC2 | 5.4 |  | 
7 | COc1ccc2c(c1)CN(Cc1cnc(N)nc1N)CC2c1cccc([N+](=O)[O-])c1 (centres undefined) |  | 16700 | 
8 | COc1cc2c(cc1OC)CN(Cc1cnc(N)nc1N)CC2 |  |  | IC50 (Dihydrofolate reductase [2]): 30 µM; IC50 (Dihydrofolate reductase [3]): > 100 µM; MIC [4]: 0.5 mg/L (≈ 1.59 µM); MIC [5]: 4 mg/L (≈ 12.7 µM); MIC [6]: > 32 mg/L; MIC [7]: 0.5 mg/L (≈ 1.59 µM); MIC [8]: 4 mg/L (≈ 12.7 µM)
9 | CSc1c2n(c3cc(Cl)ccc13)CCN(Cc1cnc(N)nc1N)C2 |  | 2600 | 
10 | COc1cc2c(cc1OC)C(c1ccc(Cl)cc1Cl)CN(Cc1cnc(N)nc1N)C2 (centres undefined) | 2 | 243 | 
11 | Nc1ncc(CN2CCc3c([nH]c4ccccc34)C2)c(N)n1 |  | 45000 | 
